We go through 1 molecule from patent US20230235397A1, “METHODS FOR CLASSIFICATION AND TREATMENT OF PSYCHOTIC DISORDER SUBJECTS” (CENTRE HOSPITALIER UNIVERSITAIRE VAUDOIS (CHUV), priority 2019, published 2023).

The experiment concerns Gclm-KO+GBR mice. Nature of the experiment: MitoQ treatment of Gclm-KO+GBR mice (oxidative stress model), markers in anterior cingulate cortex. In kind it is in vivo. From the text:
Treatment with MitoQ (P21-P40) in Gclm-KO mice treated with GBR12909 normalizes NIX, FUNDC1 and LC3B expression levels as well as miR-137 expression intensity when compared to values observed for wild-type mice (FIG. 7). […] Thus, MitoQ has been unexpectedly found to be useful in reversing the miR-137 overexpression, mitophagy and parvalbumin interneuron impairment induced by oxidative stress.
Example 9 relates to an animal model of oxidative stress. Oxidative stress elicits mitophagy in the anterior cingulated cortex (ACC) of Gclm-KO mice (transgenic mice carrying permanent defect in glutathione GSH synthesis). […] Because extranuclear localization of 8-oxo-dG labeling was observed, it could be surmised that mitochondrial DNA (mtDNA) was affected. […] In comparison with WT mice (Gclm-WT+PBS, wherein PBS refers to phosphate-buffered saline, a common buffer used in these experiments as vehicle), levels of the mitophagy receptors NIX and FUNDC1 and of the autophagosome LC3B were reduced in the ACC of Gclm-KO mice (Gclm-KO+PBS, at P40). […] Taken together, these observations are consistent with an oxidative stress-induced mitophagy deficit in prefrontal parvalbumin interneurons.
It has been shown that miR-137 plays a functional role in modulating synaptic function and in regulating the expression of the NIX and FUNDC1 mitophagy receptors.
In view of the detrimental effects of oxidative stress on integrity of parvalbumin interneurons, miR-137 expression level as well as mitophagy during preweaning and pubertal stages of development, it was evaluated whether MitoQ treatment, a selective mitochondria targeted-antioxidant, could rescue these deficits in young KO mice. Treatment with MitoQ (P21-P40) in Gclm-KO+GBR mice normalized NIX, FUNDC1 and LC3B expression levels as well as miR-137 expression intensity, when compared to WT values (FIG. 7). […] Thus, MitoQ can reverse the oxidative stress induced miR-137 overexpression, mitophagy and parvalbumin interneuron impairment, highlighting that the upregulation of miR-137 and subsequent mitophagy defect constitutes the molecular mechanism underlying the oxidative stress-induced parvalbumin interneuron impairment.

The mark [1] stands for this setting: ACC of Gclm-KO+GBR animals, following treatment with MitoQ.
Where [2] appears, read: MitoQ P21-P40, Gclm-KO+GBR mice, ACC, compared to WT values (FIG. 7).

For `COC1=C(OC)C(=O)C(CCCCCCCCCC[PH](c2ccccc2)(c2ccccc2)c2ccccc2)=C(C)C1=O` [MitoQ, mitoquinone], under setting [1], the “abnormalities in cell body numbers of parvalbumin interneurons” value was “restored to WT levels” and the “staining intensity of parvalbumin interneuron processes” value is “restored to WT levels”. Moreover, under setting [2], the FUNDC1 expression level result is “normalized”, the LC3B expression level result is recorded as “normalized”, the NIX expression level result is recorded as “normalized” and the miR-137 expression intensity result is “normalized”.
